The text below walks through data of patent US5552267A, “Solution for prolonged organ preservation” (priority 1994, dated 1996).

Structures are written as SMILES. “Also recorded” adds a separate entry of the source. Where a SMILES comes first, the peptide text is derived from it.

The test system of test [1] is heart. Conditions: in vivo; cited from earlier work.
Test [2] relates to heart. Nature of the test: heterotopic rat cardiac transplant, cAMP series, graft survival/score. The test is classed as in vivo, rat (male Sprague-Dawley). Conditions: 12 h in LR. An excerpt: Preservation solutions included lactated Ringer's (LR) solution Baxter, Edison, N.J.), or LR supplemented with rolipram ZK 62 711, Schering AG, Berlin, Germany), indolidan LY195115, Lilly Research Laboratories, Indianapolis, Ind.), sodium butyrate, 8-bromoadenosine, 8-bromoadenosine 3',5'monophosphate (8-Br-cAMP; Sigma Chemical Co., St. Louis, Mo.), the Rp -isomer of adenosine 3',5'monophosphorothioate (Rp -cAMPS; Biolog, La Jolla, Calif.), the Sp isomer of adenosine 3',5'monophosphorothioate (Sp -cAMPS; Biolog), and N^6,O^2' -dibutyryl adenosine 3',5'monophosphate sodium (db-cAMP; Aldrich, Milwaukee, Wis.). Components were combined within 4 hrs of donor cardiectomy, and preservation solutions were kept at 4° C. University of Wisconsin solution (UW)(2-4 was purchased from Dupont (Wilmington, Del.).
Donor Cardiectomy. Male Sprague-Dawley rats (350-450 grams, Camm Research, Wayne, N.J.) were anesthetized, heparinized (1000 units of heparin given intravenously), and the donor heart removed in the following manner; a midline incision was performed, followed by rapid cardioplegic arrest with 5 ml of cold (4° C.), high potassium solution (NACl, 0.9%, and KCl, 40 mEq/L). The heart was maintained at 4° C. throughout the harvest procedure by the application of a cold saline soaked gauze over its surface. […] The aortic root was flushed with ≈15 ml of the cold preservation solution until the coronary arteries became visibly clear, and the heart remained in the cold storage solution for the indicated duration until the time of transplantation.
Heterotopic Transplant. The same breed/size of rat was used, and similarly anesthetized, but not given heparin. A midline abdominal incision was made, and the infrarenal aorta and vena cava were occluded with a side-biting vascular clamp and longitudinal incisions were made in each vessel. The donor heart was removed from the preservation solution and kept moist with saline-soaked gauze. […] Blood flow was restored to the graft (by removal of the clamp) exactly one hour after removal from the cold preservation solution. […] Ten minutes after removal of the cross-clamp, an electrocardiogram was taken (Grass Polygraph, Quincy, Mass.) and the heart was judged by the same blinded investigators throughout based on the presence/absence of regular contractions and a transplant score (0-5, worst-best, respectively) employing the following criteria: contraction (poor=0, average=1, vigorous=2), tissue turgor (hard=0, average=1, soft=2), and color (dusky=0, pink=1). […] The heterotopic cardiac transplant experiments performed in these studies were done by a single surgeon after establishment of this model and acquisition of surgical expertise, with control and experimental groups interspersed throughout the study period to prevent a time-dependent bias pertaining to surgical skills.
Statistics. Graft survival data and transplant scores were analyzed using the Kruskal-Wallis non-parametric analysis of variance (38). Comparisons of individual treatments were performed using the procedure described by Dunn (39). In addition, the effect of db-cAMP on the time-course of graft failure was quantified by multivariate logistic regression. Graft myeloperoxidase data, microsphere data, and cAMP/adenylate cyclase/phosphodiesterase data from experiments with cultured vascular smooth muscle cells were analyzed by t-tests when 2 treatments were performed or by analysis of variance when 3 or more treatments were performed. In the latter case, post-hoc comparison of treatment groups were tested using Tukey's procedure. Values are expressed as means ±SEM, with a p <0.05 considered statistically significant.

For test [3], the system named is cGMP-dependent protein kinase. Conditions: relative to cGMP; cited from earlier work.
The subject of test [4] is nitric oxide at lung surface. Description: in vivo pulmonary NO with porphyrinic microsensor. On the set-up: species or system rat. Conditions: during continued reperfusion; A23187 9.5 μM. The procedure: Measurements of nitric oxide concentrations in vivo were performed with a two electrode system using a porphyrinic sensor as a working electrode and a platinum wire as an auxiliary/reference electrode. The porphyrinic sensor with a flexible base was lowered onto the exposed surface of the lung using a micromanipulator. A small piezoelectric signal (mechanically generated current) was used to indicate that the sensor had made contact with the tissue surface. NO measurements were begun once the flexible sensor assumed an L-shaped configuration on the tissue surface and the platinum wire was connected to adjacent tissue. Continous amperometric (current-time) measurements were obtained at a constant potential of 0.68 V, during the period of warm ischemia (after the lung was sewn in place but not yet reperfused) and continously as the vascular cross-clamp was released and reperfusion initiated. Topical application of the calcium ionophore (A23187, 9.5 μM; Sigma) and superoxide dismutase (100 U/ml; Sigma) was applied as monitoring was continued.

For test [5], the system named is heart. Nature of the test: heterotopic rat cardiac transplant, nitric oxide series, graft survival/score. The test is classed as in vivo, rat (male Sprague-Dawley). Particulars: 12 h in LR. An excerpt: Male Sprague-Dawley rats (350 grams, Camm Research, Wayne, N.J.) were used, and harvest, preservation, and transplantation procedures performed as described^8. Preservation solutions included lactated Ringer's (LR) solution (Baxter, Edison, N.J.), or LR supplemented with nitroglycerin (DuPont, Wilmington, Del.), sodium nitroprusside (Roche Laboratories, Nutley, N.J.), N^G -monomethyl-L-arginine (L-NMMA; Chembiochem, Salt Lake City, Utah), L-arginine (Sigma Chemical Co., St. Louis, Mo.), or 8-bromoguanosine3',5'monophosphate (8-Br-cGMP; Sigma). Components were combined within 4 hrs of donor cardiectomy, and preservation solutions were kept at 4° C. All of these solutions were at the pH of LR (6.6). University of Wisconsin solution (UW) was purchased from Dupont. […] Ten minutes after removal of the cross-clamp, an electrocardiogram was taken (Grass Polygraph, Quincy, Mass.) and the heart was judged by the same blinded investigators throughout based on the presence/absence of regular contractions and a transplant score (0-5, worst-best, respectively) employing the following criteria: contraction (poor=0, average=1, vigorous=2), tissue turgor (hard=0, average=1, soft=2), and color (dusky=0, pink=1).
Graft survival data was analyzed by contingency analysis (chi-square). Transplant scores, microsphere perfusion, myeloperoxidase, NO synthase, and platelet serotonin release data were analyzed using ANOVA for unpaired variables with the Tukey test used to discriminate significant differences between group means. Values are expressed as means ±SEM, with a p<0.05 considered statistically significant.

The subject of a further test is lung. Nature of the test: orthotopic rat left lung transplantation, cGMP series (hemodynamics, oxygenation, recipient survival). Type of test: in vivo, rat (male Lewis). Conditions: 6 h in EC. The procedure: Orthotopic rat left lung transplantation was accomplished using inbred male Lewis rats (250-300 gms), using a modification of a previously described technique^29. The donor rat was anesthetized and heparinized (500 U intravenously), and endotracheal intubation was performed by inserting a 16 gauge angiocatheter into the trachea using blunt cervical dissection, after which the rat was ventilated with room air at a constant rate (100 breaths/minute) and tidal volume (2.5 ml), using a Harvard rodent ventilator. […] The pulmonary artery (PA) and pulmonary vein (PV) were divided, the bronchus ligated with the lung partially inflated and then divided, and the lung removed. The vascular stumps were each pulled through a small plastic cylinder, and a lip of vessel was turned back around the edge and secured in place with a suture to form a "cuff." A small plastic cylinder was inserted into the bronchial stump and secured, and the lung was then wrapped in gauze and submerged in cold preservation solution for the desired interval.
The recipient rat (gender/size/strain-matched) was similarly anesthetized and intubated (ventilated with 100% oxygen), but not heparinized. A left thoracotomy was performed, the hilum was dissected, and the left bronchus, PA, and PV were isolated, cross-clamped, divided and the native lung was removed from the field. The PA and PV stumps were rinsed with heparinized saline to remove any clot. The donor lung was brought onto the surgical field, and the cylinder (bronchus) and cuffs (PA and PV) were connected rapidly to their respective structures with a simple staying suture. This cuff technique permitted rapid approximation of donor and recipient tissues with no contact of a foreign substance with the luminal vascular surface. The hilar cross-clamp was released, re-establishing blood flow, and the bronchus tie was removed, enabling gas exchange. A snare was then passed around the right PA, and a Millar catheter (2F; Millar Instruments,Houston, Tex.) was introduced through a small hole (surrounded by a pursestring) into the main PA; similarly, a Millar catheter was introduced into the left atrium (LA). A flow probe (Transonics, Ithaca, N.Y.) was then placed around the main PA. Arterial blood gas sampling performed via the left femoral artery.
Online hemodynamic monitoring was accomplished using MacLab and a Macintosh IIci computer. The hemodynamic parameters that were measured included PA pressure (mm Hg), blood flow (ml/min), LA pressure (mm Hg), as well as arterial oxygen tension (mm Hg) during inspiration of 100% oxygen; pO2 was analyzed with a model ABL-2 dissolved gas analyzer (Radiometer, Copenhagen, Denmark). Pulmonary vascular resistances (PVRs) were calculated as [mean PA pressure-LA pressure]/PA flow. The native lung supported the recipient during the period of warm ischemia (the period during which the donor lung was removed from cold preservation until the time of reperfusion, <10 min. in all instances), but immediately following rapid hemodynamic instrumentation and acquisition of baseline measurements, the native (right) PA was then ligated, and serial measurements (representative solely of the transplanted lung) were taken every five minutes for 30 minutes. Because the native lung was effectively removed from the circulation by ligation of the right PA, these measurements represent function of the transplanted lung. Recipient death was identified by the cessation of cardiac mechanical activity observed through the thoracotomy.
Preservation solutions were freshly made and coded by a technician not otherwise involved in the experiments, according to a general plan which included both control and experimental groups. […]

The test system of test [6] is cardiac graft vasculature. Nature of the test: perfusion of donor grafts by microspheres, nitric oxide series. The test is classed as in vivo, rat. Particulars: 12 h preservation in LR. The method, then:
Ten minutes after restoration of blood flow, 0.5 ml of 10 μm diameter microspheres (10^6 /ml) (E-Z Trac, Los Angeles, Calif.) was injected into the donor aortic root. Deposition of microspheres in ventricular tissue was assessed following alkaline hydrolysis, washing, and counting of microspheres as described^8, with results expressed as number of spheres per (40×) field per gram of ventricle. A minimum of ten fields were counted and the mean ±SEM is reported.

The test system of test [7] is nitric oxide production in heart. Nature of the test: direct measurement of coronary vascular and endocardial NO with porphyrinic microsensor. On the set-up: species or system rat. The method, then: Direct measurement of coronary vascular and endocardial nitric oxide synthesis were made with a porphyrinic microsensor^13 using differential pulse voltammetry or amperometry. Rat hearts were explanted and preserved as described above, and studied fresh (no preservation/transplantation) or after hypothermic preservation in lactated Ringer's (LR) solution, heterotopic transplantation, and 10 minutes of reperfusion. The coronary vasculature was flushed free of blood with LR followed by 4 ml of LR supplemented with L-Arg (2 mM) and bradykinin ([…], Sigma), which was recycled (1 ml/min) through the coronary vasculature by flushing down the cross-clamped aortic root. Aliquots of perfusate were immediately transferred to an anaerobic environment for measurements and compared to an aqueous nitric oxide reference. Differential pulse voltammograms were obtained using a sensor (working electrode), saturated calomel electrode reference, and platinum wire-auxiliary electrode, with a pulse amplitude of 40 mV. Endocardial NO was measured by implanting the sensor in the septal endocardium of a freshly explanted or preserved/transplanted heart, and after the baseline stabilization, […] bradykinin was applied and NO release continuously monitored by amperometry at constant potential of 0.63 V.

For `N=c1c[n+](N2CCOCC2)[n-]o1` [SIN-1], the “effect in cardiac ischemia models” value with heart [1] is “improve vascular function and outcome”.

Consider `CC1(C)C(=O)Nc2ccc(C3=NNC(=O)CC3)cc21` [indolidan], for which, in the test with heart [2], the “effect on cardiac preservation” value is reported as “uniformly enhanced preservation”.

As for `CCCC(=O)Nc1ncnc2c1ncn2[C@@H]1O[C@@H]2COP(=O)(O)O[C@H]2[C@H]1O` [mb-cAMP, N^6 -monobutyryladenosine 3'5'monophosphate], the “fold less potent than cGMP in activating cGMP-dependent protein kinase” value in test [3] is 313 fold.

For the compound `CNc1ccc2oc(C[C@H]3O[C@@]4(CC[C@H]3C)O[C@H]([C@H](C)C(=O)c3ccc[nH]3)[C@H](C)C[C@H]4C)nc2c1C(=O)O` [A23187], in test [4], the “effect on decline in NO” value is “did not alter the decline in NO”.

As to `Nc1ncnc2c1nc(Br)n2[C@@H]1O[C@@H]2COP(=O)(O)O[C@H]2[C@H]1O` [8-Br-cAMP, 8-bromoadenosine 3'5'monophosphate], in the test on heart [2], the “concentration for optimal/maximal preservation” value was 0.1 mM and the “effect on cardiac preservation” value is listed as “prolonged graft survival”. Further, the graft survival in the test on heart [2] (8-Br-cAMP 0.1 mM) is reported as 100%. In test [3], the “fold less potent than cGMP in activating cGMP-dependent protein kinase” value is given as 53 fold.

For the compound `N=C(NCCC[C@H](N)C(=O)O)N[N+](=O)[O-]` [N^ω -nitro-L-arginine], in the test with heart [5], the “effect on graft preservation (words)” value was “blocked the beneficial effects of L-Arg”.

As for `Nc1nc2c(nc(Br)n2[C@@H]2O[C@H](COP(=O)(O)O)[C@@H](O)[C@H]2O)c(=O)[nH]1` [8-bromoguanosine 5'monophosphate], in the test with lung, the “effect on lung preservation” value was “without effect”.

Regarding `CNC(=N)NCCC[C@H](N)C(=O)O` [L-NMMA, N^G -monomethyl-L-arginine], the results for the “effect on graft preservation (words)” value in the test with heart [5] and in the test on heart [5] (listed as N^G -monomethyl-L-arginine) were “blocked the beneficial effects of L-Arg” and “no survival of cardiac grafts; also recorded: poor preservation”, respectively. The graft survival in the test with heart [5] (NTG 0.1 mg/ml where added) is given as 0%. Also, in test [6], the “graft blood flow” value is “decreased blood flow”. In addition, the “effect on NO levels” value in test [7] (transplanted hearts) was “blocked further NO production”.

Turning to `O=NO` [acidified sodium nitrite, sodium nitrite], the “effect in cardiac ischemia models” value with heart [1] was “blunt myocardial injury and neutrophil accumulation during reperfusion; also recorded: improve vascular function and outcome”.

For the compound `Nc1nc2c(nc(Br)n2[C@@H]2O[C@H](CO)[C@@H](O)[C@H]2O)c(=O)[nH]1` [8-Br-guanosine], the “effect on lung preservation” value in the test on lung is “without effect”.

In the case of `NC(N)=NCCC[C@H](NC(=O)[C@H](Cc1ccccc1)NC(=O)[C@@H]1CCCN1C(=O)[C@H](CO)NC(=O)[C@H](Cc1ccccc1)NC(=O)CNC(=O)[C@@H]1CCCN1C(=O)[C@@H]1CCCN1C(=O)[C@@H](N)CCCN=C(N)N)C(=O)O` [bradykinin] (H-RPPGFSPFR-OH), the “endocardial NO plateau following bradykinin challenge” value in test [7] (freshly explanted heart) came out at 0.67 ± 0.06 µM; in test [7] (preserved (38 hrs) heart), 0.17 ± 0.05 µM.
